# Assays:
# mouse COL1A2 promoter = assay: Decoy oligonucleotides in COL1A2/luciferase transgenic mice (FIG. 5B); assay type: in vivo; conditions: 15 μg intradermally; COL1A2/lux transgenic mice; 24 hours; vs control skin
# Protocol: FIG. 5. Decoy Sp1 oligonucleotides inhibit COL1A2 promoter activity in vitro and in vivo. A, Confluent human dermal fibroblast cultures are transfected with 5 μg of −500COL1A2/CAT reporter gene construct. After glycerol shock, increasing amounts (2, 5, 10 μg) of Sp1 (open bars) or mSp1 (hatched bars) oligonucleotides are added to the culture medium. Forty hours later, CAT activity is determined and compared to that of cultures without oligonucleotides (closed bar). Relative promoter activity (mean±SD) of three separate experiments performed in duplicate is presented. […] After a 30-hr incubation, animals are sacrified and luciferase activity is determined in the skin surrounding the injection sites using identical amounts of protein extracts (40 μg). […]
# Treatment of transgenic mice. […] Luciferase activity using identical amounts of extracted proteins is determined with a commercial assay kit (Promega).
# Next, decoy Sp1 experiments are performed in a transgenic mouse model in which 17 kb of the mouse COL1A2 promoter drives the expression of the luciferase gene. […] Luciferase activity is determined 24 hours later in the skin region surrounding the injections. […]
# Sp1 = Sp1 (Homo sapiens, UniProt P08047); assay: EMSA binding of Sp1 to oligonucleotide; conditions: EMSA experiments
# Sequence of Sp1 (P08047 whole entry): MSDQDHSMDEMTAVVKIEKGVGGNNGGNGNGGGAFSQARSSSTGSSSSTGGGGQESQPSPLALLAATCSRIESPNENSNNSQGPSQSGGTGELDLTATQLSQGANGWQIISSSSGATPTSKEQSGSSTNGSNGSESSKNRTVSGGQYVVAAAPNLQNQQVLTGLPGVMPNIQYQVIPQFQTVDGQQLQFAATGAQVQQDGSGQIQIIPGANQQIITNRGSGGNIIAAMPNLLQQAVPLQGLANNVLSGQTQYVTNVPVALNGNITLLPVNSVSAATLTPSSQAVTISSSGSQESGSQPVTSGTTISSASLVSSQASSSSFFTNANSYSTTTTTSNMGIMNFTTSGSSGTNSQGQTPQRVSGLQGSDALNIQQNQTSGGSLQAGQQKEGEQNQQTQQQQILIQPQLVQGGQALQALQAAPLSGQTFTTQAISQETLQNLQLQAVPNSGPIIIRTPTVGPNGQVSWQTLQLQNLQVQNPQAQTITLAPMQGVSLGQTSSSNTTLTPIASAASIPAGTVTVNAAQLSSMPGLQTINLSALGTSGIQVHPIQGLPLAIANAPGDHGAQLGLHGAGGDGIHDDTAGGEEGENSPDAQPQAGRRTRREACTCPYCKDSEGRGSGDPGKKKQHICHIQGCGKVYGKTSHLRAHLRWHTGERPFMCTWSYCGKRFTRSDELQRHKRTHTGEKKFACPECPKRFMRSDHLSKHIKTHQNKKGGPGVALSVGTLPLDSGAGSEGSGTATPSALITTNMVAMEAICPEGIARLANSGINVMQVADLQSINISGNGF
# Protocol: Electrophoresis mobility shift assays (EMSA). A 22-mer consensus Sp1 oligonucleotide 5′-[…]-3′ was used as a probe to determine Sp1/DNA interactions. For supershift experiments, nuclear extracts (5 μg) are incubated for 2 h on ice with an anti-Sp1 antibody (Santa Cruz Biotechnologies, Santa Cruz, Calif.) prior to the binding reactions. Binding mixtures are separated electrophoretically on native 4% acrylamide gels, as described previously (Vindevoghel et al, 1997).
# Decoy Sp1 oligonucleotides inhibit COL1A2 promoter activity in vitro and in vivo. Since Sp1 is fundamental for high expression of several ECM genes, short oligonucleotides bearing a consensus Sp1 binding sequence are analyzed for their efficacy as decoys to decrease collagen promoter activity. For this purpose. two approaches are used. First, human dermal fibroblasts are transfected with the −3500COL1A2/CAT construct, and various amounts of either wild-type or mutant Sp1 double-stranded oligonucleotides (SEQ. ID. NO:2 and SEQ. ID. NO: 3. respectively) are added to the culture medium. Promoter activity is determined 24 h later. […] Maximal inhibition (55%) is observed with addition of […] of Sp1 oligonucleotide.
# COL1A2 promoter = assay: Decoy oligonucleotides on COL1A2/CAT promoter activity in dermal fibroblasts (FIG. 5A); assay type: cell-based, human; conditions: −3500COL1A2/CAT, 24 h; for decrease of COL1A2 promoter activity: various amounts added to culture medium
# Protocol: FIG. 5. Decoy Sp1 oligonucleotides inhibit COL1A2 promoter activity in vitro and in vivo. A, Confluent human dermal fibroblast cultures are transfected with 5 μg of −500COL1A2/CAT reporter gene construct. After glycerol shock, increasing amounts (2, 5, 10 μg) of Sp1 (open bars) or mSp1 (hatched bars) oligonucleotides are added to the culture medium. Forty hours later, CAT activity is determined and compared to that of cultures without oligonucleotides (closed bar). Relative promoter activity (mean±SD) of three separate experiments performed in duplicate is presented. B, Four transgenic mice carrying 17 kb of mouse COL1A2 promoter linked to the luciferase gene in their genome are injected subcutaneously at distant sites (approx. 2 cm apart) with 15 μg of either Sp1 (open bar) or mSp1 (hatched bar) oligonucleotides in 25 μl of H2O. After a 30-hr incubation, animals are sacrified and luciferase activity is determined in the skin surrounding the injection sites using identical amounts of protein extracts (40 μg). A non-injected skin area is used as control (solid bar).
# Transient cell transfection and CAT assays. Transient cell transfections are performed with the calcium phosphate/DNA co-precipitation procedure. CAT activity is measured using [^14C]chloramphenicol as substrate (Gorman et al, Mol Cell Biol 2: 1044-1051, 1982) followed by thin layer chromatography and quantitation with a phosphorimager.
# Decoy oligonucleotides. In some in vitro experiments decoy double-stranded oligonucleotides are used in an attempt to interfere with Sp1 binding to its cognate cis-elements within the COL1A2 promoter. […] 24 h later, CAT activity, representing promoter activity, is determined.
# Decoy Sp1 oligonucleotides inhibit COL1A2 promoter activity in vitro and in vivo. Since Sp1 is fundamental for high expression of several ECM genes, short oligonucleotides bearing a consensus Sp1 binding sequence are analyzed for their efficacy as decoys to decrease collagen promoter activity. […] Promoter activity is determined 24 h later. […]
# human dermal fibroblasts = assay type: cell-based
# COL7A1 promoter = assay: Decoy oligonucleotides on COL7A1 promoter activity; assay type: cell-based, human; conditions: compared with COL1A2 promoter
substance,measurement,setting,value
"mSp1: mutant double-stranded oligonucleotide used as a control, 5′-ATTCGATCGTAGCGATGCGAGC-3′ (double-stranded, further chemistry not given here) [reference compound]",reduction of COL1A2 promoter activity (luciferase activity in skin),mouse COL1A2 promoter,no effect
same,binding of Sp1 to the oligonucleotide's Sp1 binding site,Sp1,incapable of binding Sp1
same,decrease of COL1A2 promoter activity,COL1A2 promoter,not
same,cellular toxicity,human dermal fibroblasts,No cellular toxicity
"Sp1 oligonucleotide: 22-mer consensus Sp1 double-stranded decoy oligonucleotide, 5′-ATTCGATCGGGGCGGGGCGAGC-3′ (double-stranded, further chemistry not given here)",reduction of COL1A2 promoter activity (luciferase activity in skin),mouse COL1A2 promoter,about 70%
same,inhibition of COL7A1 promoter,COL7A1 promoter,equally inhibited
same,Maximal inhibition of COL1A2 promoter activity,COL1A2 promoter; 15 μg/plate,55%
same,decrease of COL1A2 promoter activity,COL1A2 promoter,efficiently decreases COL1A2 promoter activity in a dose-dependent manner
same,cellular toxicity,human dermal fibroblasts,No cellular toxicity
